{"source": "patent US20140335083A1", "about": "“METHODS OF TREATMENT AND PREVENTION OF EYE DISEASES” (GLAXO GROUP LIMITED, priority 2011, published 2014)", "type_in_all_cases": "in vivo", "key": {"[1]": {"test_system": "laser-induced CNV in C57BL/6 mice", "experiment": "Laser-induced CNV in C57/BL6 mice, fluorescein angiography", "experimental": "Adult 12 weeks old female C57BL/6 mice were used to generate the laser-induced CNV model. Mice were anesthetized by intraperitoneal ketamine hydrochloride (25 mg/kg) and xylazine (10 mg/kg) and their pupils dilated by topical tropicamide 1%. Laser-photocoagulation was performed a diode laser (680 nm; 210 mW power, 100 ms duration, 100 […]) under direct vision using a hand-held cover slide as a contact lens and were localized to the 2, 10, and 6 o'clock positions of the posterior pole of the retina in both eyes. These laser settings consistently generate a subretinal gas bubble which strongly correlates with laser-induced rupture of Bruch's membrane and successful induction of CNV. Only lesions in which a bubble is formed were included in the analysis. Fluorescein angiography using a Kowa Genesis small animal fundus camera was conducted at 1 week and 2 weeks following induction of CNV. The size of CNV lesions were quantified by digital image analysis the mean area of hyperfluorescence per lesion during the early phase (90 seconds post fluorescein injection). The pupils were dilated by topical tropicamide 1% and fluorescein sodium 2% administered by intraperitoneal injection (0.2 ml). Eyes were excluded if there was significant cataract or keratopathy that could affect laser energy delivery or angiography.\nAdult 12 weeks old female C57BL/6 mice were used to generate the laser-induced CNV (3 CNV lesions per mouse retina) model using laser photocoagulation and puncture of Bruch's membrane.\nThe statistical analysis conducted here is stringent in that number of observations are related to the number of animals treated whereas in most other studies (conducted in the wider literature) using this laser-induced model each lesion (3 CNV lesions per mouse retina) are regarded as independent observations. […] However it is clear that in the case of orally dosed pazopanib either statistical approach would have yielded a robust effect or as such the effect of CCR3 inhibitor '994 in this model appears weaker than orally dosed pazopanib."}, "[2]": {"test_system": "retinal neovascularization in C57BL/6 mice", "experiment": "Oxygen-induced retinopathy, area of retinal neovascularization", "conditions": "hyperbaric oxygen", "experimental": "C57BL/6 mice placed in 75% O2 at postnatal day (P) 7 and at P12 were returned to room air and treatment initiated with compound or vehicle. At P17, the area of retinal NV on the surface of the retina was measured as described previously (Shen et al., 2007). Briefly, P17 mice were given an intraocular injection of 1 μl of rat anti-mouse platelet endothelial cell adhesion molecule-1 (PECAM-1) antibody (Pharmingen, San Jose, Calif., USA); after 12 h, they were euthanized, and eyes were fixed in PBS-buffered formalin for 5 h at room temperature. Retinas were dissected, washed, and incubated with goat-anti rat polyclonal antibody conjugated with Alexa 488 (Invitrogen, Carlsbad, Calif., USA) at 1:500 dilution at room temperature for 45 min and flat mounted. An observer masked with respect to treatment group measured the area of NV per retina by image analysis.\n(see, FIGS. 12 and 13). In systemic experiments both eyes were examined and no significant differences were observed between CCR3 inhibitor '994 and vehicle treated groups. In topical experiments no significant differences were noted between CCR3 inhibitor '994 and vehicle groups nor treated and fellow eye in the CCR3 inhibitor '994 treated group. […] Consequently SU4312 acts similarly on retinal neovascularization to that of an alternative receptor tyrosine kinase inhibitor pazopanib which was effective in limiting choroidal neovascularization."}, "[3]": {"experiment": "Exposure after oral versus i.p. dosing in mice", "conditions": "mouse; oral v i.p."}}}
{"smiles": "NC(=O)c1ccc(CNC(=O)NC[C@H]2CN(Cc3ccc(Cl)c(Cl)c3)CCO2)cc1", "note": "[CCR3 inhibitor '994, 4-[[[[[[(2s)-4-[(3,4-dichlorophenyl)methyl]-2-morpholinyl]methyl]-amino]carbonyl]-amino]methyl]benzamide]", "values": [{"measurement": "Ratio of mean lesion sizes", "setting": "[1]; Table 1 study, 8 mg/kg po QD v Vehicle, Week 1", "value": 0.82}, {"measurement": "Ratio of mean lesion sizes", "setting": "[1]; Table 1 study, 8 mg/kg po QD v Vehicle, Week 2", "value": 0.99}, {"measurement": "Ratio of mean lesion sizes", "setting": "[1]; Table 1 study, 30 mg/kg '994 v 20 mg/kg Pazopanib, Week 1", "value": 1.47}, {"measurement": "Ratio of mean lesion sizes", "setting": "[1]; Table 1 study, 30 mg/kg '994 v 20 mg/kg Pazopanib, Week 2", "value": 2.03}, {"measurement": "Ratio of mean lesion sizes", "setting": "[1]; Table 1 study, 30 mg/kg po QD v Vehicle, Week 1", "value": 0.70}, {"measurement": "Ratio of mean lesion sizes", "setting": "[1]; Table 1 study, 30 mg/kg po QD v Vehicle, Week 2", "value": 0.78}, {"measurement": "Ratio of mean lesion sizes", "setting": "[1]; Table 2 (second) study, 2 mg/kg po QD v Vehicle, Week 1", "value": 0.93}, {"measurement": "Ratio of mean lesion sizes", "setting": "[1]; Table 2 (second) study, 2 mg/kg po QD v Vehicle, Week 2", "value": 0.83}, {"measurement": "Ratio of mean lesion sizes", "setting": "[1]; Table 2 (second) study, 8 mg/kg BID po v Vehicle, Week 1", "value": 0.80}, {"measurement": "Ratio of mean lesion sizes", "setting": "[1]; Table 2 (second) study, 8 mg/kg BID po v Vehicle, Week 2", "value": 0.65}, {"measurement": "Ratio of mean lesion sizes", "setting": "[1]; Table 2 (second) study, 8 mg/kg po QD v Vehicle, Week 1", "value": 0.81}, {"measurement": "Ratio of mean lesion sizes", "setting": "[1]; Table 2 (second) study, 8 mg/kg po QD v Vehicle, Week 2", "value": 0.66}, {"measurement": "Ratio of mean lesion sizes", "setting": "[1]; Table 2 (second) study, 30 mg/kg '994 v 20 mg/kg Pazopanib, Week 1", "value": 2.05}, {"measurement": "Ratio of mean lesion sizes", "setting": "[1]; Table 2 (second) study, 30 mg/kg '994 v 20 mg/kg Pazopanib, Week 2", "value": 2.16}, {"measurement": "Ratio of mean lesion sizes", "setting": "[1]; Table 2 (second) study, 30 mg/kg po QD v Vehicle, Week 1", "value": 0.62}, {"measurement": "Ratio of mean lesion sizes", "setting": "[1]; Table 2 (second) study, 30 mg/kg po QD v Vehicle, Week 2", "value": 0.56}, {"measurement": "effect on neovascularization of retinal vessels", "setting": "[2]; systemic 8 mg/kg BID i.p.", "value": "did not have an effect"}, {"measurement": "effect on neovascularization of retinal vessels", "setting": "[2]; topically 5 ul 10 mg/ml BID", "value": "did not have an effect"}, {"measurement": "reduction in exposure, oral dosing as compared to i.p dosing", "setting": "[3]", "value": 5, "unit": "fold"}]}
